Patent US10968222B2, “2-azabicyclo hexane JAK inhibitor compound” (THERAVANCE BIOPHARMA R&D IP, LLC, priority 2018, dated 2021)

Experiments:
[1] = target: T1, JAK2 (Homo sapiens, UniProt O60674); test: Biochemical JAK kinase assay (LanthaScreen), JAK2; settings: converted from pIC50 by Cheng-Prusoff; 3 μM ATP; read-out: JAK 2 pKi (converted)
T1 construct: GST; purchased Life Technologies
Experimental: A panel of four LanthaScreen JAK biochemical assays (JAK1, 2, 3 and Tyk2) were carried in a common kinase reaction buffer (50 mM HEPES, pH 7.5, 0.01% Brij-35, 10 mM MgCl2, and 1 mM EGTA). Recombinant GST-tagged JAK enzymes and a GFP-tagged STAT1 peptide substrate were obtained from Life Technologies.
Serially diluted compound was pre-incubated with each of the four JAK enzymes and the substrate in white 384-well microplates (Corning) at ambient temperature for 1 h. ATP was subsequently added to initiate the kinase reactions in 10 μL total volume, with 1% DMSO. […] The plates were allowed to incubate at ambient temperature for 1 h before being read on the EnVision reader (Perkin Elmer). Emission ratio signals (520 nm/495 nm) were recorded and utilized to calculate the percent inhibition values based on DMSO and background controls.
For dose-response analysis, percent inhibition data were plotted vs. compound concentrations, and IC50 values were determined from a 4-parameter robust fit model with the Prism software (GraphPad Software). Results were expressed as pIC50 (negative logarithm of IC50) and subsequently converted to pKi (negative logarithm of dissociation constant, Ki) using the Cheng-Prusoff equation.

[2] = system: IL-13 induced STAT6 phosphorylation in BEAS-2B human lung epithelial cells; test: Inhibition of IL-13 stimulated pSTAT6 in BEAS-2B cells; type: cell-based; settings: AlphaScreen, read-out: pIC50, inhibition of IL-13 stimulated pSTAT6 (converted)
Experimental: The AlphaScreen JAKI cellular potency assay was carried out by measuring interleukin-13 (IL-13, R&D Systems) induced STAT6 phosphorylation in BEAS-2B human lung epithelial cells (ATCC). The anti-STAT6 antibody (Cell Signaling Technologies) was conjugated to AlphaScreen acceptor beads (Perkin Elmer), while the anti-pSTAT6 (pTyr641) antibody (Cell Signaling Technologies) was biotinylated using EZ-Link Sulfo-NHS-Biotin (Thermo Scientific).
BEAS-2B cells were grown at 37° C. in a 5% CO2 humidified incubator in 50% DMEM/50% F-12 medium (Life Technologies) supplemented with 10% FBS (Hyclone), 100 U/mL penicillin, 100 μg/mL streptomycin (Life Technologies), and 2 mM GlutaMAX (Life Technologies). On day 1 of the assay, cells were seeded at a 7,500 cells/well density in white poly-D-lysine-coated 384-well plates (Corning) with 25 μL medium, and were allowed to adhere overnight in the incubator. […] After a minimum of 2 h incubation, the assay plates were read on the EnVision plate reader. AlphaScreen luminescence signals were recorded and utilized to calculate the percent inhibition values based on DMSO and background controls.
For dose-response analysis, percent inhibition data were plotted vs. compound concentrations, and IC50 values were determined from a 4-parameter robust fit model with the Prism software. Results may also be expressed as the negative logarithm of the IC50 value, pIC50.

[3] = target: T2, PKAC-ALPHA (Homo sapiens, UniProt P17612); test: Kinome screen, PKAC-ALPHA; type: binding; settings: screened at 1 μM
T2 construct: made in house; host or cells: E. coli BL21-derived host (T7 phage) or HEK-293 cells
Experimental: Compounds 1 and C-1 were screened against other kinases to evaluate their selectivity profile.
Kinase-tagged T7 phage strains were grown in parallel in 24-well blocks in an E. coli host derived from the BL21 strain. E. coli were grown to log-phase and infected with T7 phage from a frozen stock (multiplicity of infection=0.4) and incubated with shaking at 32° C. until lysis (90-150 minutes). The lysates were centrifuged (6,000×g) and filtered (0.2 μm) to remove cell debris. The remaining kinases were produced in HEK-293 cells and subsequently tagged with DNA for qPCR detection.
Streptavidin-coated magnetic beads were treated with biotinylated small molecule ligands for 30 minutes at room temperature to generate affinity resins for kinase assays. The liganded beads were blocked with excess biotin and washed with blocking buffer (SeaBlock (Pierce), 1% BSA, 0.05% Tween 20, 1 mM DTT) to remove unbound ligand and to reduce non-specific phage binding. Binding reactions were assembled by combining kinases, liganded affinity beads, and test compounds in 1× binding buffer (20% SeaBlock, 0.17×PBS, 0.05% Tween 20, 6 mM DTT). Test compounds were prepared as 40× stocks in 100% DMSO and directly diluted into the assay. All reactions were performed in polypropylene 384-well plates in a final volume of 0.04 ml. […] The kinase concentration in the eluates was measured by qPCR. […]

T1 sequence (O60674 whole entry): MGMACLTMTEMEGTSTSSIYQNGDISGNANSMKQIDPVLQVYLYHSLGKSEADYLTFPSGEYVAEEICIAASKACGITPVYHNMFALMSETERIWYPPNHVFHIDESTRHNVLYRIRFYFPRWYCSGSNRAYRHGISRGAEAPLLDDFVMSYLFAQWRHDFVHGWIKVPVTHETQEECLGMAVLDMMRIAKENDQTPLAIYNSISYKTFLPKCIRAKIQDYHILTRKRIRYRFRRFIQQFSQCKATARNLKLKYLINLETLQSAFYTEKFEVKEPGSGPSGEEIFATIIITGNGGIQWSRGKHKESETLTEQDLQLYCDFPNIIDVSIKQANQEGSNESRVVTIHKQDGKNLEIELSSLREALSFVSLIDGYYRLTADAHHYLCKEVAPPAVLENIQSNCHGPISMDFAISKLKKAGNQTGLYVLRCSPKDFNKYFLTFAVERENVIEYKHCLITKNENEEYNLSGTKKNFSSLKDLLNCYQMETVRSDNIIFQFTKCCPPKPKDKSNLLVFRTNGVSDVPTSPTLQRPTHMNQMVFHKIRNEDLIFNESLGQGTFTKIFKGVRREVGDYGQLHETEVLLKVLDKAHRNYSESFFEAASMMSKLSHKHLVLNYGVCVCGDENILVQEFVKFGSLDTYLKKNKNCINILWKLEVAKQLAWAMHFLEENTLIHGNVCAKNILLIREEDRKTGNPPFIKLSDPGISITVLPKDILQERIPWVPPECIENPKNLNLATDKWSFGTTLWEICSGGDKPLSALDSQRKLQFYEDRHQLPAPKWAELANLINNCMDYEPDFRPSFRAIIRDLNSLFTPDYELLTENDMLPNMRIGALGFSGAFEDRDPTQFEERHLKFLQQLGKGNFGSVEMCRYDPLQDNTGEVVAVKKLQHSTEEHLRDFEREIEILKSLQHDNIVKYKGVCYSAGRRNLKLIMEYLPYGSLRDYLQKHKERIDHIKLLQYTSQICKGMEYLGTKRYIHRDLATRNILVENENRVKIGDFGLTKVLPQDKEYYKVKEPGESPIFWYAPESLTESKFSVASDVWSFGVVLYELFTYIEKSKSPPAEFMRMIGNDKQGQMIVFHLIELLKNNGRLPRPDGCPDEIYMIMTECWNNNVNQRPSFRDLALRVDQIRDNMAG

## CCc1cc(O)c(F)cc1-c1cc(F)c2c(-c3nc4c([nH]3)CCN(C(=O)[C@]35C[C@H]3CCN5)C4)n[nH]c2c1 [Compound 1, (1S,5R)-2-azabicyclo[3.1.0]hexan-1-yl(2-(6-(2-ethyl-5-fluoro-4-hydroxyphenyl)-4-fluoro-1H-indazol-3-yl)-6,7-dihydro-3H-imidazo[4,5-c]pyridin-5(4H)-yl)methanone]
[1]
  Ki: 0.0631 nM
[2]
  IC50: 10 nM
[3]
  inhibition at 1 µM: 22%
